ChEMBL document CHEMBL1921715, “Usabamycins A-C: new anthramycin-type analogues from a marine-derived actinomycete” (Bioorg Med Chem Lett, 2011)
Activity calls are given as the source filed them. No cut-off for these calls is given here.

What was measured:
[1] = tested on: HeLa; assay: Cytotoxicity against human HeLa cells; assay type: functional, cell-based
[2] = biological target: T1, 5-hydroxytryptamine receptor 3A (Homo sapiens) (UniProt P46098); assay: Inhibition of 5HT3 receptor at 25 uM
T1 sequence (whole entry): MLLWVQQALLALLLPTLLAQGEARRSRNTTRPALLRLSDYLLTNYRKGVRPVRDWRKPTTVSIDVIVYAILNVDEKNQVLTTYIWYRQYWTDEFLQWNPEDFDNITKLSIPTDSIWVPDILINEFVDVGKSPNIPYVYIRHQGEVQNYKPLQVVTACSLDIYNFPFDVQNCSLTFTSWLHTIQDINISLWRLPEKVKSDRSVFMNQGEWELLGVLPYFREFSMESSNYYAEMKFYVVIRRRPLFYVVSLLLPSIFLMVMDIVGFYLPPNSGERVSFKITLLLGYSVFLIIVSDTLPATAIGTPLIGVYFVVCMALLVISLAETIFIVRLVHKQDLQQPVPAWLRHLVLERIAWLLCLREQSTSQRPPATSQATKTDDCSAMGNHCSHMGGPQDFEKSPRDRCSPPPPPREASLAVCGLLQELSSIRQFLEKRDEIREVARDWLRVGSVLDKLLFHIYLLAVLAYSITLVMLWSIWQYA

[3] = biological target: T2, 5-hydroxytryptamine receptor 1A (Homo sapiens) (UniProt P08908); assay: Inhibition of 5HT1A receptor at 25 uM
T2 sequence (whole entry): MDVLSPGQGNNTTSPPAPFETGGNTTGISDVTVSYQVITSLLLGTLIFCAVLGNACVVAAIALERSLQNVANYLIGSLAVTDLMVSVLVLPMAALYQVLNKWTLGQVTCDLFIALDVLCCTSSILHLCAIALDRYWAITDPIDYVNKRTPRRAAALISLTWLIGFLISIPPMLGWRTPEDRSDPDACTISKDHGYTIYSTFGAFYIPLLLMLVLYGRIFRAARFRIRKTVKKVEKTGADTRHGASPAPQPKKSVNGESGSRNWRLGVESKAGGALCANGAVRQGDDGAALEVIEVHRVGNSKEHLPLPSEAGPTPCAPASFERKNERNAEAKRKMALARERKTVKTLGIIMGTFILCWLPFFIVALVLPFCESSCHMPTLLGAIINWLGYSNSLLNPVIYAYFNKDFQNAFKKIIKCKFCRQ

[4] = biological target: 5-hydroxytryptamine receptor 2B (Homo sapiens, UniProt P41595); assay: Inhibition of human 5HT2B receptor expressed in cos-7 cells assessed as [3H]5-HT […] after 120 mins; assay type: cell-based
5-hydroxytryptamine receptor 2B, sequence (P41595 whole entry): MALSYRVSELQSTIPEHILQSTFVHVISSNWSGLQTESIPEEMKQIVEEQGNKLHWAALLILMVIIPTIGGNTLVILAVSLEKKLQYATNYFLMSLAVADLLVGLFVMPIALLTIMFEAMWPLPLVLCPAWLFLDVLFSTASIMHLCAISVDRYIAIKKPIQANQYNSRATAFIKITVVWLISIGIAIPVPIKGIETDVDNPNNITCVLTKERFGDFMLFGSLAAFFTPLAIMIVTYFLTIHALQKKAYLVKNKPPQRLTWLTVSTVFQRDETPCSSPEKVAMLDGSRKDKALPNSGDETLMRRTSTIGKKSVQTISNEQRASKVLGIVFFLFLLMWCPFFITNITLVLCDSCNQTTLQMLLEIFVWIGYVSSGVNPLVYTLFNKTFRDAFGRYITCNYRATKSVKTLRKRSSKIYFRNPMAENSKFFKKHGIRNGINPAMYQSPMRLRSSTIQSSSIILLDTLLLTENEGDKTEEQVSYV

SMILES | IC50 [1] | inhibition [2] | inhibition [3] | IC50 [4] | Ki [4]
CC/C=C1\C[C@H]2CNc3ccccc3C(=O)N2C1 [USABAMYCIN C] | 102 µM | inactive | inactive | 8.24 µM | 5.24 µM
CC/C=C1\C[C@H]2CNc3c(OC)cccc3C(=O)N2C1 [USABAMYCIN A] | 107 µM | inactive | inactive | 12.4 µM | 7.89 µM
C/C=C1\C[C@H]2CNc3c(OC)cccc3C(=O)N2C1 [USABAMYCIN B] | 104 µM | inactive | inactive | 8.45 µM | 5.38 µM
